Measurements reported in the NIST ThermoML archive (doi:10.1016/j.jct.2006.03.018).

Legend:
[1] = 101 kPa, Liquid
[2] = refractive index (Na D-line) (dimensionless); conditions: 101.33 kPa, Liquid
[3] = xn = mol fraction of the nth substance listed; conditions: 101 kPa, Liquid
[4] = refractive index (Na D-line) (dimensionless); xn = mol fraction of the nth substance listed; conditions: 101 kPa, Liquid

CC(C)CCO [3-methylbutan-1-ol]
Conditions	mass density, 298.15 K [kg/m3]	mass density, 303.15 K [kg/m3]	mass density, 308.15 K [kg/m3]	refractive index, 298.15 K	refractive index, 303.15 K	speed of sound, 298.15 K [m/s]	viscosity, 298.15 K [mPa·s]	viscosity, 303.15 K [mPa·s]
[1]	807.2	803.45	791.86	–	–	1241	3.835	3.261
[2]	–	–	–	1.405	1.403	–	–	–

COc1ccccc1 [anisole]
Conditions	mass density, 298.15 K [kg/m3]	mass density, 303.15 K [kg/m3]	mass density, 308.15 K [kg/m3]	refractive index, 298.15 K	refractive index, 303.15 K	refractive index, 308.15 K	speed of sound, 298.15 K [m/s]	viscosity, 298.15 K [mPa·s]	viscosity, 303.15 K [mPa·s]	viscosity, 308.15 K [mPa·s]
[1]	989.15	984.45	979.73	–	–	–	1412	0.988	0.913	0.854
[2]	–	–	–	1.5137	1.5113	1.5088	–	–	–	–

COc1ccccc1 [anisole] + CCCO
Conditions	mass density, 298.15 K [kg/m3]	mass density, 303.15 K [kg/m3]	mass density, 308.15 K [kg/m3]	refractive index, 298.15 K	refractive index, 303.15 K	refractive index, 308.15 K	speed of sound, 298.15 K [m/s]	viscosity, 298.15 K [mPa·s]	viscosity, 303.15 K [mPa·s]	viscosity, 308.15 K [mPa·s]
[3], x1 = 0.1036	816.88	812.68	808.48	–	–	–	1223	1.564	1.392	1.242
[3], x1 = 0.2003	835.8	831.49	827.18	–	–	–	1232	1.352	1.198	1.078
[3], x1 = 0.3055	856.97	852.54	848.11	–	–	–	1258	1.166	1.094	0.961
[3], x1 = 0.4053	876.55	872.04	867.53	–	–	–	1278	1.069	0.98	0.879
[3], x1 = 0.5096	897.74	893.14	888.55	–	–	–	1297	1.003	0.921	0.838
[3], x1 = 0.6015	915.39	910.74	906.1	–	–	–	1314	0.989	0.903	0.821
[3], x1 = 0.7071	934.31	929.62	924.94	–	–	–	1330	0.947	0.859	0.802
[3], x1 = 0.8023	952.23	947.51	942.78	–	–	–	1350	0.943	0.861	0.795
[3], x1 = 0.8939	970.23	965.5	960.74	–	–	–	1370	0.932	0.869	0.792
[3], x1 = 1	989.15	984.45	979.73	–	–	–	1412	0.988	0.913	0.854
[4], x1 = 0.1036	–	–	–	1.4013	1.3989	1.3966	–	–	–	–
[4], x1 = 0.2003	–	–	–	1.4176	1.4153	1.4129	–	–	–	–
[4], x1 = 0.3055	–	–	–	1.4284	1.4314	1.4287	–	–	–	–
[4], x1 = 0.4053	–	–	–	1.4459	1.4458	1.4426	–	–	–	–
[4], x1 = 0.5096	–	–	–	1.461	1.4578	1.4542	–	–	–	–
[4], x1 = 0.6015	–	–	–	1.4737	1.4704	1.4673	–	–	–	–
[4], x1 = 0.7071	–	–	–	1.4864	1.482	1.4793	–	–	–	–
[4], x1 = 0.8023	–	–	–	1.4955	1.493	1.4897	–	–	–	–
[4], x1 = 0.8939	–	–	–	1.5046	1.5014	1.499	–	–	–	–
[4], x1 = 1	–	–	–	1.5137	1.5113	1.5088	–	–	–	–

COc1ccccc1 [anisole] + CCO
Conditions	mass density, 298.15 K [kg/m3]	mass density, 303.15 K [kg/m3]	mass density, 308.15 K [kg/m3]	refractive index, 298.15 K	refractive index, 303.15 K	refractive index, 308.15 K	speed of sound, 298.15 K [m/s]	viscosity, 298.15 K [mPa·s]	viscosity, 303.15 K [mPa·s]	viscosity, 308.15 K [mPa·s]
[3], x1 = 0.0998	822.6	818.11	813.62	–	–	–	1178	0.995	0.908	0.831
[3], x1 = 0.1985	852.71	848.12	843.52	–	–	–	1226	0.934	0.851	0.777
[3], x1 = 0.2976	878.53	873.84	869.14	–	–	–	1277	0.91	0.829	0.768
[3], x1 = 0.3973	900.47	895.73	890.99	–	–	–	1290	0.881	0.813	0.747
[3], x1 = 0.5008	920.46	915.68	910.89	–	–	–	1301	0.882	0.807	0.749
[3], x1 = 0.5968	936.53	931.73	926.92	–	–	–	1314	0.849	0.784	0.727
[3], x1 = 0.7015	952.42	947.62	942.81	–	–	–	1326	0.894	0.832	0.774
[3], x1 = 0.7935	964.6	960.01	955.42	–	–	–	1340	0.897	0.83	0.772
[3], x1 = 0.9014	977.99	973.42	968.84	–	–	–	1355	0.923	0.858	0.792
[3], x1 = 1	989.15	984.45	979.73	–	–	–	1412	0.988	0.913	0.854
[4], x1 = 0.0998	–	–	–	1.3856	1.3838	1.3814	–	–	–	–
[4], x1 = 0.1985	–	–	–	1.4085	1.4066	1.4039	–	–	–	–
[4], x1 = 0.2976	–	–	–	1.4284	1.4261	1.4241	–	–	–	–
[4], x1 = 0.3973	–	–	–	1.4459	1.4428	1.4402	–	–	–	–
[4], x1 = 0.5008	–	–	–	1.461	1.4586	1.4567	–	–	–	–
[4], x1 = 0.5968	–	–	–	1.4737	1.4711	1.4695	–	–	–	–
[4], x1 = 0.7015	–	–	–	1.4864	1.4842	1.4816	–	–	–	–
[4], x1 = 0.7935	–	–	–	1.4955	1.4934	1.4907	–	–	–	–
[4], x1 = 0.9014	–	–	–	1.5046	1.5031	1.5008	–	–	–	–
[4], x1 = 1	–	–	–	1.5137	1.5113	1.5088	–	–	–	–

CCCCO [butan-1-ol]
Conditions	mass density, 298.15 K [kg/m3]	mass density, 303.15 K [kg/m3]	mass density, 308.15 K [kg/m3]	refractive index, 298.15 K	refractive index, 303.15 K	refractive index, 308.15 K	speed of sound, 298.15 K [m/s]	viscosity, 298.15 K [mPa·s]	viscosity, 303.15 K [mPa·s]	viscosity, 308.15 K [mPa·s]
[1]	806.12	802.28	798.41	–	–	–	1246	2.585	2.284	1.981
[2]	–	–	–	1.3968	1.3944	1.3923	–	–	–	–

CCCCO [butan-1-ol] + COc1ccccc1
x2 = 0
Conditions	mass density, 298.15 K [kg/m3]	mass density, 303.15 K [kg/m3]	mass density, 308.15 K [kg/m3]	refractive index, 298.15 K	refractive index, 303.15 K	refractive index, 308.15 K	speed of sound, 298.15 K [m/s]	viscosity, 298.15 K [mPa·s]	viscosity, 303.15 K [mPa·s]	viscosity, 308.15 K [mPa·s]
[3]	806.12	802.28	798.41	–	–	–	1246	2.585	2.284	1.981
[4]	–	–	–	1.3968	1.3944	1.3923	–	–	–	–

CCO [ethanol]
Conditions	mass density, 298.15 K [kg/m3]	mass density, 303.15 K [kg/m3]	mass density, 308.15 K [kg/m3]	refractive index, 298.15 K	refractive index, 303.15 K	refractive index, 308.15 K	speed of sound, 298.15 K [m/s]	viscosity, 298.15 K [mPa·s]	viscosity, 303.15 K [mPa·s]	viscosity, 308.15 K [mPa·s]
[1]	785.91	781.6	777.26	–	–	–	1161	1.073	0.971	0.889
[2]	–	–	–	1.3591	1.3572	1.355	–	–	–	–

CCO [ethanol] + COc1ccccc1
x2 = 0
Conditions	mass density, 298.15 K [kg/m3]	mass density, 303.15 K [kg/m3]	mass density, 308.15 K [kg/m3]	refractive index, 298.15 K	refractive index, 303.15 K	refractive index, 308.15 K	speed of sound, 298.15 K [m/s]	viscosity, 298.15 K [mPa·s]	viscosity, 303.15 K [mPa·s]	viscosity, 308.15 K [mPa·s]
[3]	785.91	781.6	777.26	–	–	–	1161	1.073	0.971	0.889
[4]	–	–	–	1.3591	1.3572	1.355	–	–	–	–

CCCCCO [pentan-1-ol]
Conditions	mass density, 298.15 K [kg/m3]	mass density, 303.15 K [kg/m3]	mass density, 308.15 K [kg/m3]	refractive index, 298.15 K	refractive index, 303.15 K	refractive index, 308.15 K	speed of sound, 298.15 K [m/s]	viscosity, 298.15 K [mPa·s]	viscosity, 303.15 K [mPa·s]	viscosity, 308.15 K [mPa·s]
[1]	810.92	807.23	803.52	–	–	–	1286	3.403	2.959	2.581
[2]	–	–	–	1.4073	1.405	1.4032	–	–	–	–

CCCCCO [pentan-1-ol] + COc1ccccc1
x2 = 0
Conditions	mass density, 298.15 K [kg/m3]	mass density, 303.15 K [kg/m3]	mass density, 308.15 K [kg/m3]	refractive index, 298.15 K	refractive index, 303.15 K	refractive index, 308.15 K	speed of sound, 298.15 K [m/s]	viscosity, 298.15 K [mPa·s]	viscosity, 303.15 K [mPa·s]	viscosity, 308.15 K [mPa·s]
[3]	810.92	807.23	803.52	–	–	–	1286	3.403	2.959	2.581
[4]	–	–	–	1.4073	1.405	1.4032	–	–	–	–

CCCO [propan-1-ol]
Conditions	mass density, 298.15 K [kg/m3]	mass density, 303.15 K [kg/m3]	mass density, 308.15 K [kg/m3]	refractive index, 298.15 K	refractive index, 303.15 K	refractive index, 308.15 K	speed of sound, 298.15 K [m/s]	viscosity, 298.15 K [mPa·s]	viscosity, 303.15 K [mPa·s]	viscosity, 308.15 K [mPa·s]
[1]	799.96	795.93	791.86	–	–	–	1206	1.792	1.706	1.518
[2]	–	–	–	1.3826	1.3808	1.3782	–	–	–	–

CCCO [propan-1-ol] + COc1ccccc1
x2 = 0
Conditions	mass density, 298.15 K [kg/m3]	mass density, 303.15 K [kg/m3]	mass density, 308.15 K [kg/m3]	refractive index, 298.15 K	refractive index, 303.15 K	refractive index, 308.15 K	speed of sound, 298.15 K [m/s]	viscosity, 298.15 K [mPa·s]	viscosity, 303.15 K [mPa·s]	viscosity, 308.15 K [mPa·s]
[3]	799.96	795.93	791.86	–	–	–	1206	1.792	1.706	1.518
[4]	–	–	–	1.3826	1.3808	1.3782	–	–	–	–

CC(C)O [propan-2-ol]
Conditions	mass density, 298.15 K [kg/m3]	mass density, 303.15 K [kg/m3]	mass density, 308.15 K [kg/m3]	refractive index, 298.15 K	refractive index, 303.15 K	refractive index, 308.15 K	speed of sound, 298.15 K [m/s]	viscosity, 298.15 K [mPa·s]	viscosity, 303.15 K [mPa·s]	viscosity, 308.15 K [mPa·s]
[1]	781.36	777.09	772.75	–	–	–	1141	2.042	1.755	1.521
[2]	–	–	–	1.3745	1.3721	1.3702	–	–	–	–

CC(C)O [propan-2-ol] + COc1ccccc1
x2 = 0
Conditions	mass density, 298.15 K [kg/m3]	mass density, 303.15 K [kg/m3]	mass density, 308.15 K [kg/m3]	refractive index, 298.15 K	refractive index, 303.15 K	refractive index, 308.15 K	speed of sound, 298.15 K [m/s]	viscosity, 298.15 K [mPa·s]	viscosity, 303.15 K [mPa·s]	viscosity, 308.15 K [mPa·s]
[3]	781.36	777.09	772.75	–	–	–	1141	2.042	1.755	1.521
[4]	–	–	–	1.3745	1.3721	1.3702	–	–	–	–
